Laboratory results as given in PubChem BioAssay (NCI).
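Method: 48-hour compound exposure of cells in 96-well plates, five concentrations, linear interpolation of endpoints. Definition used: TGI = concentration required for complete inhibition of growth.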

How the values were obtained:
Test in all cases: NCI-60 cell line screen, 48 h
DMS 114 small cell lung = system: DMS 114 small cell lung
HL-60(TB) leukemia = system: HL-60(TB) leukemia
IGROV1 ovarian = system: IGROV1 ovarian
NCI-H23 lung = system: NCI-H23 lung
OVCAR-3 ovarian = system: OVCAR-3 ovarian
RXF 393 renal = system: RXF 393 renal
SK-MEL-28 melanoma = system: SK-MEL-28 melanoma
SNB-78 CNS = system: SNB-78 CNS
UACC-257 melanoma = system: UACC-257 melanoma
BT-549 breast = system: BT-549 breast
DU-145 prostate = system: DU-145 prostate
HCT-116 colon = system: HCT-116 colon
HS 578T breast = system: HS 578T breast
MCF7 breast = system: MCF7 breast
MDA-MB-231 breast = system: MDA-MB-231 breast
NCI/ADR-RES ovarian = system: NCI/ADR-RES ovarian
PC-3 prostate = system: PC-3 prostate
SR leukemia = system: SR leukemia
T-47D breast = system: T-47D breast
DMS 273 small cell lung = system: DMS 273 small cell lung

SMILES	TGI (DMS 114 small cell lung) [µM]	TGI (HL-60(TB) leukemia) [µM]	TGI (IGROV1 ovarian) [µM]	TGI (NCI-H23 lung) [µM]	TGI (OVCAR-3 ovarian) [µM]	TGI (RXF 393 renal) [µM]	TGI (SK-MEL-28 melanoma) [µM]	TGI (SNB-78 CNS) [µM]	TGI (UACC-257 melanoma) [µM]	TGI (BT-549 breast) [µM]	TGI (DU-145 prostate) [µM]	TGI (HCT-116 colon) [µM]	TGI (HS 578T breast) [µM]	TGI (MCF7 breast) [µM]	TGI (MDA-MB-231 breast) [µM]	TGI (NCI/ADR-RES ovarian) [µM]	TGI (PC-3 prostate) [µM]	TGI (SR leukemia) [µM]	TGI (T-47D breast) [µM]	TGI (DMS 273 small cell lung) [µM]
N#Cc1ccc(OCCSCCCCCCCCCCSCCOc2ccc(C#N)cc2)cc1	> 100	> 100	> 100	> 100	> 100	> 100	> 100	> 100	> 100											
CC(=O)C1C(=O)C(C(C)=O)C2C3C=CC(C3)C12 (stereo unspecified)		> 100	> 100	> 100	> 100	> 100	> 100		> 100	> 100	> 100	> 100	> 100	> 100	> 100	> 100	> 100	> 100	> 100	
Cc1ccc(N=C2OP(=O)(Nc3ccc(C)cc3)Oc3ccccc32)cc1 (stereo unspecified)		> 100	> 100	> 100	> 100	> 100	> 100		> 100	> 100	> 100	> 100	> 100	> 100	> 100	> 100	> 100	> 100	> 100	
Cc1cc2c(=O)c(C)n[nH]c2c(C#N)c1C		> 100	> 100	> 100	> 100	> 100	> 100		> 100			> 100						> 100		> 100
O=S1(=O)c2ccccc2N2C(c3ccccc3)=NOC2(c2ccccc2)CC1c1ccc(Br)cc1 (stereo unspecified)		> 100	> 100	> 100	> 100	> 100	> 100		> 100	> 100	> 100	> 100	> 100	> 100	> 100	> 100	> 100	> 100	> 100	
Cc1nc(C)c(N2CCN(S(N)(=O)=O)CC2)c(=O)[nH]1		> 100	> 100	> 100	> 100	> 100	> 100		> 100	> 100	> 100	> 100	> 100	> 100	> 100	> 100	> 100	> 100	> 100	
CN/N=C(\C(=O)Nc1ccc(C(F)(F)F)cc1[N+](=O)[O-])C(c1cnc2ccc([N+](=O)[O-])cc2n1)[N+](=O)[O-] (stereo unspecified)	> 100		> 100	> 100	> 100	> 100	> 100	> 100	> 100			> 100						> 100		
Cc1cccc(N=Cc2ccc(N(CCC#N)S(=O)(=O)c3ccccc3)cc2C)c1	> 100	> 100	> 100	> 100	> 100		> 100		> 100			> 100								> 100
CO/N=C(/C(=O)Nc1c[n+](CC(=O)[O-])cs1)c1csc(N)n1		> 100	> 100	> 100	> 100			> 100	> 100			> 100								> 100
O=C1/C(=C/c2ccccc2)CCc2ccc([N+](=O)[O-])cc21		> 100	> 100	> 100	> 100	77.7	> 100		> 100	> 94.4	> 100	> 100	> 100	> 100	> 100	> 100	> 100	> 63.3	> 100	
O=C(O)/C=C/c1ccc(OS(=O)(=O)O)cc1		> 100	> 100	> 100	> 100	> 100	> 100		> 100	> 100	> 100	> 100	> 100	> 100	> 100	> 100	> 100	> 100	> 100	
COCN1C(=N)C(C(=O)OC(C)(C)C)=C2C=C(O)C=CC21C (stereo unspecified)		83.3	28.2	30.2		19.3	36.3		22.5	12.8	24.2	20.7	82.9	22.9	29	69	30.6	> 100	9.93	
CNS(=O)(=O)NNS(=O)(=O)c1ccc(F)cc1	> 100	> 100	> 100	> 100	> 100	> 100			> 100			> 100						> 100		> 100
COc1ccccc1/C=N/Nc1nnc2c3ccccc3c3ncccc3c2n1		> 100	> 100	> 100	> 100	55.6	> 100		> 100	> 100	> 100	> 100	> 100	> 100	> 100	> 100	> 100	> 100	> 100	
COc1ccc(-c2cc(=O)c3cc(Cl)ccc3[nH]2)cc1	> 100	> 100	> 100	> 100	> 100	> 100	> 100	> 100	> 100			> 100						> 100		
O=C(O[C@H]1[C@@H]2C=CO[C@@H](OC3OC(CO)C(O)C(O)C3O)[C@@H]2[C@@]2(CO)O[C@@H]12)c1ccc(O)c(O)c1 (stereo partly specified)		> 100	> 100	> 100	> 100	> 100	> 100	> 100	> 100											> 100
